Common to all, as to format: cell-based
For test [1], the system named is T47D cells. Description: Time course of cell growth over 7 days, Coulter counter. The note with it: different concentrations. The text has this: (§1) Senexin A alone inhibited cell growth, with the strongest effects observed in the estrogen-dependent lines T47D and parental MCF7 and the weakest effects in cell lines that are fully or partially estrogen-independent (MCF7-Veh, MCF7-1p).

Test [2] relates to MCF7 cells. The test is described as above. Particulars: different concentrations.
Text: as §1

The test system of test [3] is BT474 cells. The description is as above. Particulars: different concentrations.
Text: as §1

The test system of test [4] is T47D cells. Nature of the test: Growth inhibition, 6-day treatment, Coulter counter. The note with it: 6 days. The text has this:
(§2) Both MCF7-1pE and MCF7-Veh are resistant to tamoxifen and MCF7-Veh is also resistant to fulvestrant.

In test [5] the test system is MCF7-1pE cells. The test is described as above. The note with it: 6 days.
Text: as §2

The test system of test [6] is MCF7-Veh cells. The test is described as above. The note with it: 6 days.
Text: as §2

Test [7] concerns MCF7 cells. The description is as above. The note with it: 6 days.
Text: as §2

The subject of test [8] is BT474 cells. Described as above. Particulars: 6 days.
Text: as §2

Test [9] concerns estrogen-depleted MCF7 cells. Description: Estrogen (E2) mitogenic stimulation assay, flow cytometric cell counting. Particulars: for decrease of cell number: 4 days after E2 addition, fulvestrant 1 nM and/or Senexin A 1 μM; for effect on E2-stimulated cell growth: 10 nM E2. How it is done:
To test the effect of CDK8/19 inhibition on the mitogenic effect of estrogen in estrogen-responsive BrCa cells, MCF7 cells (ER+BrCa line) were placed into estrogen-depleted phenol red-free media with 10% charcoal-stripped serum. Under these conditions cells are largely but not completely estrogen-depleted (full depletion would require adapting the cells to low serum, since the cells can synthesize estrogen from serum components). Cells were then plated in the presence or absence of Senexin A (at 1 μM and 5 μM concentrations), and either 10 nM of the estrogen 17-β-estradiol (E2) or vehicle control were added on the following day. Cell growth was measured by flow cytometric counting of live (PI-negative) and dead (PI-positive) cells over 4 days.
The interaction between Senexin A and fulvestrant in MCF7 cells was investigated in the estrogen (E2) mitogenic stimulation assay, carried out as described in example 1, with the cell number measured by flow cytometry 4 days after E2 addition.
On the technique in general: In flow cytometry, cells or beads pass a laser one at a time.

In test [10] the test system is GREB1 expression in estrogen-depleted MCF7 cells. Description: QPCR analysis of estrogen-inducible gene expression. The note with it: two concentrations of Senexin A, with or without E2. The text has this: (§3) Rae et al., (2005) used microarray profiling to analyze the effects of E2 and ER antagonists on gene expression in three ER+BrCa cell lines, MCF7, T47D and BT-474. […] The cytokine CXCL12 was also shown to mediate the mitogenic effect of E2 (Sauve et al., 2009) and, together with its receptor CXCR4, to be a key determinant of metastasis in cancers of the breast and other organs (Muller et al., 2001; Rhodes et al., 2011). […] The effect of Senexin A on CXCL12, a known mediator of metastasis, is of particular interest as a possible cause of the association of CDK8 expression with shorter RFS.

The test system of test [11] is CXCL12 expression in estrogen-depleted MCF7 cells. The test is described as above. Particulars: two concentrations of Senexin A, with or without E2.
Text: as §3

Test [12] concerns TFF1 expression in estrogen-depleted MCF7 cells. The description is as above. Particulars: two concentrations of Senexin A, with or without E2.
Text: as §3

Test [13] relates to MCF7-1pE cells. Description: Long-term (11-day) drug treatment, crystal violet staining.
Test [14] concerns ER-dependent ERE-containing promoter in T47D-ER/Luc cells. Nature of the test: ER-dependent ERE promoter luciferase reporter assay. The note with it: different concentrations; 10 nM E2 added 1 h later; read 18 hrs later. The protocol: To determine whether the effect of CDK8 on ER-inducible gene expression is mediated through inhibition of the transcriptional effect of ER, which is exerted through ER binding to the ERE promoter element, a T47D-based reporter cell line was used. The cell line T47D-ER/Luc (obtained from Signosis) expresses firefly luciferase from the ER-dependent ERE-containing promoter. The reporter cell line was estrogen-depleted, then Senexin A was added at different concentrations, and one hour later 10 nM E2 was added. 18 hrs later, cells were counted and luciferase activity was measured.

Test [15] has as its system MCF7-Veh cells. Nature of the test: Long-term (11-day) drug treatment, crystal violet staining.
Setting [16] is: Homo sapiens, 144 h, FUL 1 nM, alone or with SenA 5 μM, read-out: % growth inhibition relative to control.
[17] abbreviates: Homo sapiens, 144 h, FUL 10 nM, alone or with SenA 5 μM, read-out: % growth inhibition relative to control.
[18] abbreviates: 144 h, FUL 1 nM, alone or with SenA 5 μM, read-out: % growth inhibition relative to control.
The mark [19] stands for this setting: 144 h, FUL 10 nM, alone or with SenA 5 μM, read-out: % growth inhibition relative to control.
The mark [20] stands for this setting: Homo sapiens, 144 h, TAM 1 μM, alone or with SenA 5 μM, read-out: % growth inhibition relative to control.
The mark [21] stands for this setting: Homo sapiens, 144 h, TAM 5 μM, alone or with SenA 5 μM, read-out: % growth inhibition relative to control.
Setting [22] is: 144 h, TAM 1 μM, alone or with SenA 5 μM, read-out: % growth inhibition relative to control.
Setting [23] is: 144 h, TAM 5 μM, alone or with SenA 5 μM, read-out: % growth inhibition relative to control.

`CN1CCN(C(=O)c2ccc3cc(CCNc4ncnc5ccc(C#N)cc45)ccc3c2)CC1` [Senexin B]: the “growth inhibition, time course” value in the test with T47D cells [1], with MCF7 cells [2] and with BT474 cells [3] was “concentration-dependent growth inhibition” each time.
As usually defined, the inhibition is the drop in the measured response relative to a control, in per cent. For the molecule `C[C@]12CC[C@@H]3c4ccc(O)cc4C[C@@H](CCCCCCCCC[S+]([O-])CCCC(F)(F)C(F)(F)F)[C@H]3[C@@H]1CC[C@@H]2O` (stereo partly shown) [FUL, fulvestrant], the inhibition at 0.001 µM in the test with T47D cells [4] (setting [16]) was determined as 56.5%; in the test on MCF7-1pE cells [5] (setting [18]), 49.7%; with MCF7-Veh cells [6] (setting [18]), 12.4%; with MCF7 cells [7] (setting [16]), 62%; with BT474 cells [8] (Homo sapiens, BT-474, 144 h, FUL 1 nM, alone or with SenA 5 μM, read-out: % growth inhibition relative to control) it was 17.7%. The inhibition at 0.01 µM amounted to 58.2% with T47D cells [4] (setting [17]); 57.2% in the test on MCF7-1pE cells [5] (setting [19]); 28% in the test on MCF7-Veh cells [6] (setting [19]); 63.6% in the test with MCF7 cells [7] (setting [17]); 22.6% with BT474 cells [8] (Homo sapiens, BT-474, 144 h, FUL 10 nM, alone or with SenA 5 μM, read-out: % growth inhibition relative to control). For the same molecule, the “decrease of cell number” value in test [9] stood at 27%.
Take `CC/C(=C(\c1ccc(O)cc1)c1ccc(OCCN(C)C)cc1)c1ccccc1` [TAM, 4-OH tamoxifen]: the inhibition at 1 µM with T47D cells [4] (setting [20]) is 54.6%; in the test with MCF7-1pE cells [5] (setting [22]) it was -1.3%; in the test on MCF7-Veh cells [6] (setting [22]), 2.6%; in the test on MCF7 cells [7] (setting [20]), 34.8%; in the test with BT474 cells [8] (Homo sapiens, BT-474, 144 h, TAM 1 μM, alone or with SenA 5 μM, read-out: % growth inhibition relative to control), 28.8%. In addition, the inhibition at 5 µM with T47D cells [4] (setting [21]) was 62.3%; with MCF7-1pE cells [5] (setting [23]) it was 1.5%; in the test with MCF7-Veh cells [6] (setting [23]), 1%; in the test with MCF7 cells [7] (setting [21]), 50.7%; in the test with BT474 cells [8] (Homo sapiens, BT-474, 144 h, TAM 5 μM, alone or with SenA 5 μM, read-out: % growth inhibition relative to control) it was 42.3%.
As to `N#Cc1ccc2ncnc(NCCc3ccccc3)c2c1` [Senexin A], the “GREB1 expression (QPCR)” value in test [10] is “inhibited”. In [11], the “CXCL12 expression (QPCR)” value is given as “inhibited”. In [12], the “TFF1 expression (QPCR)” value was “inhibited”. Moreover, the “potentiation of fulvestrant effects” value in the test on MCF7-1pE cells [13] and with MCF7-Veh cells [15] was “especially apparent” each time. Further, the “growth inhibition, time course” value with T47D cells [1], in the test on MCF7 cells [2] and in the test with BT474 cells [3] was “concentration-dependent growth inhibition” in each case. Besides, the “% growth inhibition relative to control” value in the test on T47D cells [4] (SenA 5 μM) was 48%; in the test on MCF7-1pE cells [5] (SenA 5 μM), 19.1%; in the test with MCF7-Veh cells [6] (SenA 5 μM), 15.5%; in the test with MCF7 cells [7] (SenA 5 μM), 37%; in the test with BT474 cells [8] (SenA 5 μM), 23.9%. Moreover, the “effect on E2-stimulated cell growth” value is “partial effect” in test [9] (1 μM Senexin A, over 4 days) and “abolished” in [9] (5 μM Senexin A, over 4 days). For the same molecule, in test [9] (5 μM Senexin A, no E2, over 4 days), the “effect on cell growth without E2 addition” value is recorded as “inhibited cell growth without E2 addition but to a lesser extent”. Also, the “decrease of cell number” value in [9] came out at 5%. Besides, the “nature of effect / induction of cell death (PI-positive cells)” value in test [9] (Senexin A 1 μM and 5 μM, over 4 days) was “cytostatic and were not associated with any significant induction of cell death”. Moreover, the “transcription from ER-dependent promoter (luciferase activity)” value in test [14] was “strongly inhibited”.

For the origin of these results see patent publication US20160000787A1, “INHIBITORS OF CDK8/19 FOR USE IN TREATING ESTROGEN RECEPTOR POSITIVE BREAST CANCER” (SENEX BIOTECHNOLOGY, INC., priority 2013, published 2016).
